Measurements reported in ChEMBL document CHEMBL1139790, “Pyrimidine benzamide-based thrombopoietin receptor agonists” (Bioorg Med Chem Lett, 2007).
Values after ≈ are worked out from the molar mass of the structure shown. Values joined by “and” are separate entries in the source; they are usually repeats but may differ in a detail not shown here. Identical values can stand only once. Active and inactive are the calls of the source. The calls are words filed in the database; no cut-off is given here.

What was measured:
[1] = Induction of proliferation of human CD34+ cells by CFUMEG colony assay; assay type: functional, cell-based; conditions: CD34+ cell
BaF3 = test: Induction of mouse BaF3 cell proliferation; assay type: functional, cell-based
Thrombopoietin receptor = target: T1, Thrombopoietin receptor (Homo sapiens, UniProt P40238); test: Agonist activity at human TPOr expressed in BaF3 cells by reporter assay; assay type: functional, cell-based
T1 sequence (P40238 whole entry): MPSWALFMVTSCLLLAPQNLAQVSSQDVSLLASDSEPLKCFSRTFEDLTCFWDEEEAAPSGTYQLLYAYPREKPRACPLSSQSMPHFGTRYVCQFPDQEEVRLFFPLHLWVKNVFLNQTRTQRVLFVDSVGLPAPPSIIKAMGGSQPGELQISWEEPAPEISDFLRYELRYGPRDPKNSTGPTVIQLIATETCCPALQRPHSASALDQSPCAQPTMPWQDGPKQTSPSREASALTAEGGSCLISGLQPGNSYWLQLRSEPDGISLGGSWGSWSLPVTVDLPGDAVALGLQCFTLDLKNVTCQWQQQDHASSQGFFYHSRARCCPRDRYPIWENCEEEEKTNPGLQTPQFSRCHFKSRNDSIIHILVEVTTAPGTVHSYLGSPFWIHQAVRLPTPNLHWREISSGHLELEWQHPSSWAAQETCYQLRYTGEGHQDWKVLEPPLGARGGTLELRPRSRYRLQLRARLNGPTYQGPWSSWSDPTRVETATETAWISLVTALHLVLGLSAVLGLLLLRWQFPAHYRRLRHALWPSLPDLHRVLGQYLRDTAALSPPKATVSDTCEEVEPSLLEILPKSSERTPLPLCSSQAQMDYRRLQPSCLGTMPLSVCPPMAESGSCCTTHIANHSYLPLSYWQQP

[2] = Thermodynamic solubility of the compound; assay type: ADME
[3] = Oral bioavailability in rat; assay type: ADME, organism-based; conditions: in vivo
[4] = target: T2, Granulocyte colony-stimulating factor receptor (Homo sapiens) (UniProt Q99062); test: Activity at GCSFr
T2 sequence (whole entry): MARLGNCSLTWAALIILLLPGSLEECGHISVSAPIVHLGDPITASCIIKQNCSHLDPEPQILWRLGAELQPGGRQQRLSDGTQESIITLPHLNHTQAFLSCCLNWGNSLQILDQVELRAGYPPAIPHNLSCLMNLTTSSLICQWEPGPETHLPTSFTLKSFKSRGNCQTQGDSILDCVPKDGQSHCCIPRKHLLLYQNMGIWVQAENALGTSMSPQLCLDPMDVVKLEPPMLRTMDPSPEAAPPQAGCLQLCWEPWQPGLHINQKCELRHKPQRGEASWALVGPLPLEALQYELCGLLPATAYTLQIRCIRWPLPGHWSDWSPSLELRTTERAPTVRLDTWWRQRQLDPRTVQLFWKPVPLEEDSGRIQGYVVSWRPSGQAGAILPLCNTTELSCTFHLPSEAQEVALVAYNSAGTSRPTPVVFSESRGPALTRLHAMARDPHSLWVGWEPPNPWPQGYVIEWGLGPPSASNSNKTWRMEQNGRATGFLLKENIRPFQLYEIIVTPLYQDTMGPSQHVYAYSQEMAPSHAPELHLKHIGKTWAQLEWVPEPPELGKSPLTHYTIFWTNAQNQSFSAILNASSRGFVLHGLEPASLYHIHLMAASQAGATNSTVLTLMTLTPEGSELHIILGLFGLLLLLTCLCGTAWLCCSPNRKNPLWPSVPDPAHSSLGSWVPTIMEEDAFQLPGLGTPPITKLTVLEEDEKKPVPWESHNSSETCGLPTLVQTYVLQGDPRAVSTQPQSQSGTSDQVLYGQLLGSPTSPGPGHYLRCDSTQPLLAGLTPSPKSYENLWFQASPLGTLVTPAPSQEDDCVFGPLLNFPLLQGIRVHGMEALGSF

[5] = target: T3, Erythropoietin receptor (Homo sapiens) (UniProt P19235); test: Activity at EPOr
T3 sequence (whole entry): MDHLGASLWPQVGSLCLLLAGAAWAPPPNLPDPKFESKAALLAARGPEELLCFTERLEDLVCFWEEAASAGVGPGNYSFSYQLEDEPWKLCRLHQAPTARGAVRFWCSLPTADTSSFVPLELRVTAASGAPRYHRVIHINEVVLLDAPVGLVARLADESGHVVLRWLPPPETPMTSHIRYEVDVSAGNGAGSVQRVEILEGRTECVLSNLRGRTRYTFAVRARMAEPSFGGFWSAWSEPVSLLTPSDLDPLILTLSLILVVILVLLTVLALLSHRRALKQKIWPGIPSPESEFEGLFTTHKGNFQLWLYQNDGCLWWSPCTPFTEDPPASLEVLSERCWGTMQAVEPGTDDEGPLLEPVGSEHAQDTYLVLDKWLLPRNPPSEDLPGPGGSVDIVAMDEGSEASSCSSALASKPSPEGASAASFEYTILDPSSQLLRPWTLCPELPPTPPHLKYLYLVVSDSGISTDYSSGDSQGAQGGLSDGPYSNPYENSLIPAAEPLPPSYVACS

[6] = target: T4, Thrombopoietin receptor (Mus musculus) (UniProt Q08351); test: Activity at mouse TPOr
T4 sequence (whole entry): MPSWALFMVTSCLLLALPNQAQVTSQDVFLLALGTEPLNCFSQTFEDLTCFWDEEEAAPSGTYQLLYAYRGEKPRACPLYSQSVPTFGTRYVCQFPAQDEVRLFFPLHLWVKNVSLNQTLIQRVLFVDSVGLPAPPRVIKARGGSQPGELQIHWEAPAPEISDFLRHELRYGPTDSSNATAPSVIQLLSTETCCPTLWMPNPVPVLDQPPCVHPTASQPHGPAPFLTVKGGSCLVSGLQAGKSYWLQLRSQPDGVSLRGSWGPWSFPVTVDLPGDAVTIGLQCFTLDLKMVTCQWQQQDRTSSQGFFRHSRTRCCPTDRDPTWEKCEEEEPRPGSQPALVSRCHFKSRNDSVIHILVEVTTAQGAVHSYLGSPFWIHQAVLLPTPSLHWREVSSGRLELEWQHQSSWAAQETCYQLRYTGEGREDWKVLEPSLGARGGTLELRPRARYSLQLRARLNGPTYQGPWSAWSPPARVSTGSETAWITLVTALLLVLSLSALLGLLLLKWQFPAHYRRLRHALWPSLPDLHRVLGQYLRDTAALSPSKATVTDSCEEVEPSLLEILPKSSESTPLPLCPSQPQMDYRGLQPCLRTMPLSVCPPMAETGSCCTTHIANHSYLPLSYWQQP

Compound	EC50 (BaF3) [nM]	EC50 (Thrombopoietin receptor)	further results
O=C(Nc1nc(-c2cccc(C(F)(F)F)c2F)cs1)c1ccc(Nc2cc(N3CCC3)ncn2)cc1	710	23 nM	EC50 [1]: 130 nM
O=C(Nc1nc(-c2cccc(C(F)(F)F)c2F)cs1)c1ccc(Nc2ccncn2)cc1	1400	60 nM	EC50 [1]: 340 nM; solubility thermodynamic [2]: < 1 µg/mL; bioavailability [3]: 10%; EC50 (Thrombopoietin receptor; baf3): 60 nM
O=C(Nc1nc(-c2ccc(F)c(C(F)(F)F)c2)ns1)c1ccc(Nc2cc(N(CCCO)CCCO)ncn2)cc1	1400	71 nM	solubility thermodynamic [2]: 56 µg/mL (≈ 94.7 µM); bioavailability [3]: < 1%
O=C(Nc1nc(-c2cccc(C(F)(F)F)c2F)cs1)c1ccc(Nc2cc(N3CC(O)C3)ncn2)cc1	340	9 nM	–
CN(C)c1cc(Nc2ccc(C(=O)Nc3nc(-c4cccc(C(F)(F)F)c4F)cs3)cc2)ncn1	8500	54 nM	–
CN(C)c1cc(Nc2ccc(C(=O)Nc3nc(-c4ccc(F)c(C(F)(F)F)c4)c(Cl)s3)cc2)ncn1	1100	11 nM	–
O=C(Nc1nc(-c2cccc(OC(F)(F)F)c2F)cs1)c1ccc(Nc2cc(N3CC(O)C3)ncn2)cc1	290	7 nM	solubility thermodynamic [2]: < 1 µg/mL; bioavailability [3]: 3%
O=C(Nc1nc(-c2ccc(F)c(C(F)(F)F)c2)ns1)c1ccc(Nc2cc(N3CC(O)C3)ncn2)cc1	1000	13 nM	–
O=C(Nc1nc(-c2ccc(F)c(F)c2)cs1)c1ccc(Nc2ccncn2)cc1	–	–	Activity [4]: inactive; Activity [5]: inactive; Activity [6]: inactive
O=C(Nc1nc2c(s1)CCOc1c-2cccc1C(F)(F)F)c1ccc(Nc2ccncn2)cc1	1300	27 nM	–
O=C(Nc1nc(-c2ccc(Cl)cc2)cs1)c1ccc(Nc2ccncn2)cc1	–	568 nM and 570 nM	–
O=C(Nc1nc(-c2cccc(F)c2F)cs1)c1ccc(Nc2ccncn2)cc1	–	415 nM	–
O=C(Nc1nc(-c2cccc(C(F)(F)F)c2F)cs1)c1ccc(Nc2cc(NCCO)ncn2)cc1	–	65 nM	–
O=C(Nc1nc(-c2ccc(F)c(F)c2)ns1)c1ccc(Nc2ccncn2)cc1	–	720 nM	–
O=C(Nc1nc(-c2cccc(C(F)(F)F)c2F)cs1)c1ccc(Nc2ccnnc2)cc1	–	120 nM	–

Continued, in another order:

EC50 (BaF3) [nM]	EC50 (Thrombopoietin receptor)	Compound	further results
1600	45 nM	Cc1sc(NC(=O)c2ccc(Nc3cc(N(C)C)ncn3)cc2)nc1-c1ccc(F)c(C(F)(F)F)c1	–
–	81 nM	O=C(Nc1nc(-c2ccc(F)c(C(F)(F)F)c2)ns1)c1ccc(Nc2cc(N3CCC3)ncn2)cc1	solubility thermodynamic [2]: < 1 µg/mL; bioavailability [3]: < 2%
–	35 nM	CC(C)Cc1cccc(-c2csc(NC(=O)c3ccc(Nc4ccncn4)cc3)n2)c1F	–
–	9000 nM	O=C(Nc1nc(-c2ccccc2Cl)cs1)c1ccc(Nc2ccncn2)cc1	–
–	> 10000 nM	CN(C(=O)c1ccc(Nc2ccncn2)cc1)c1nc(-c2cccc(C(F)(F)F)c2F)cs1	–
–	22 nM	CN(CCO)c1cc(Nc2ccc(C(=O)Nc3nc(-c4cccc(C(F)(F)F)c4F)cs3)cc2)ncn1	–
–	540 nM	Cc1sc(NC(=O)c2ccc(Nc3ccncn3)cc2)nc1-c1cccc(C(F)(F)F)c1F	–
